The results in this text go back to patent publication US8426412B2, “2-alkynyl-6-pyridin-2-yl-pyridazinones, 2-alkynyl-6-pyridin-2-yl-dihydropyridazinones, 2-alkynyl-6-pyrimidin-2-yl-pyridazinones and 2-alkynyl-6-pyrimidin-2-yl-dihydropyridazinones and their use as fungicides” (Dow AgroSciences, LLC., priority 2008, dated 2013).

The subject of assay [1] is Pyricularia oryzae (PYRIOR). Put plainly: microbe, parasite or virus in culture. The format is cell-based. Particulars: 72 h, read-out: EC50 PYRIOR.
Assay [2] has as its system Colletotrichum lagenarium (COLLLA). Put plainly: Activity towards plant pathogenic fungi, growth inhibition in microtiter plates. The format is cell-based. The settings on record: Colletotrichum orbiculare, 72 h, read-out: EC50 COLLLA.
Assay [3] deals with T1, microsomal Δ-9 fatty acid desaturase (Saccharomyces cerevisiae, UniProt P21147).
T1 sequence (P21147 1-510): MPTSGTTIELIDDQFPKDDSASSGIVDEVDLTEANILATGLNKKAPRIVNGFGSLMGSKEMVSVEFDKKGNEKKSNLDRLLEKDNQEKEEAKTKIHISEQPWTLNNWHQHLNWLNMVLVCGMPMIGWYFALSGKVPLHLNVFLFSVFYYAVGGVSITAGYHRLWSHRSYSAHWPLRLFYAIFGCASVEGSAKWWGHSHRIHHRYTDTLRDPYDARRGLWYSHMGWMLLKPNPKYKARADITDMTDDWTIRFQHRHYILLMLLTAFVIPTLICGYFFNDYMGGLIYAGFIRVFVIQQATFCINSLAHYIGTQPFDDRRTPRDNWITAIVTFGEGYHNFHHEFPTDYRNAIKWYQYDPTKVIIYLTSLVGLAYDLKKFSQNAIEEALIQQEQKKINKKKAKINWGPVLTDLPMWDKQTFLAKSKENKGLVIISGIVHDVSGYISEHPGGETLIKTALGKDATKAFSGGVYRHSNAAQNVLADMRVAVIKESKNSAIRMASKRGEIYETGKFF
The experiment in a line: Inhibition of Δ-9 fatty acid desaturase (desaturation of 14C-palmitoyl-CoA to 14C-palmitoleic acid). The settings on record: I50, concentration inhibiting production of palmitoleic acid by 50%; yeast microsomes, 30° C., 5 min.

A further assay deals with Candida albicans. Put plainly: microbe, parasite or virus in culture. The format is cell-based.
Setting [4] is: 50% inhibition of growth, 25° C., NepheloStar plate reader.

Values after ≈ are worked out from the molar mass of the structure shown. Where two headings read alike, the source gives them in different places.

Turning to `CCC#CCn1nc(-c2ncccc2Cl)ccc1=O` [drawing 109], the concentration for a half-maximal effect (EC50) in assay [1] and in assay [2] (setting [4]) was greater than 40 µg/mL each time.
As for `O=c1ccc(-c2ccc(Cl)cn2)nn1CC#CC1CC1` [drawing 101], the values for the EC50 in assay [1] and in assay [2] (setting [4]) were 0.062 µg/mL (≈ 0.217 µM) and 0.092 µg/mL (≈ 0.322 µM), respectively.
Take `CCCCOCCC#CCn1nc(-c2ccc(Cl)cn2)ccc1=O`: inhibition in assay [3] was half-maximal at 52 nM (IC50).
As to `CCC#CCN1N=C(c2ccc(Cl)cn2)CCC1=O`, the figures for the EC50 in assay [1] and in assay [2] (setting [4]) were 0.021 µg/mL (≈ 0.0762 µM) and 0.194 µg/mL (≈ 0.704 µM), respectively.
`CCCOCCCC#CCn1nc(-c2ccc(Cl)cn2)ccc1=O`: it took 28.9 nM to reach half-maximal inhibition in assay [3] (IC50).
For the compound `CC(C)(C)C#C/C=C/Cn1nc(-c2ccc(Cl)cn2)ccc1=O` [drawing 112], the concentration giving a half-maximal response (EC50) (in general, the concentration needed to bring the measured effect to its halfway point) in assay [1] is 8.11 µg/mL (≈ 24.7 µM); in assay [2] (setting [4]), greater than 40 µg/mL.
With `CCCCOCCOCC#CCn1nc(-c2ccc(Cl)cn2)ccc1=O` [drawing 77], in assay [3], the concentration for half-maximal inhibition (IC50) (as a rule, the midpoint of a concentration-inhibition curve) is 176 nM.
In the case of `CCC#CCn1nc(-c2ncc(Cl)cc2Cl)ccc1=O` [drawing 111], the concentration for a half-maximal effect (EC50) in assay [1] worked out at 4.42 µg/mL (≈ 14.3 µM); in assay [2] (setting [4]), 13.6 µg/mL (≈ 44.1 µM).
`O=c1ccc(-c2ccc(Cl)cn2)nn1CC#CC1CC1` [drawing 82] gave an IC50 in assay [3] of 472 nM.
In the case of `CCC#CCN1N=C(c2cc(Cl)ccn2)CCC1=O`, the values for the EC50 in assay [1] and in assay [2] (setting [4]) were 5.52 µg/mL (≈ 20 µM) and 5.75 µg/mL (≈ 20.9 µM), respectively.
`CCC#CCn1nc(-c2ccc(Cl)c(F)n2)ccc1=O` [drawing 114]: the concentration for a half-maximal effect (EC50) was found to be 0.0236 µg/mL (≈ 0.0809 µM) in assay [1] and 0.048 µg/mL (≈ 0.165 µM) in assay [2] (setting [4]).
For `CCCCOCCOCC#CCn1nc(-c2ccc(Cl)cn2)ccc1=O` [drawing 99] the same measures were 0.05 µg/mL (≈ 0.133 µM) and 0.033 µg/mL (≈ 0.0878 µM).
Consider `CCC(C)CCOCC#CCn1nc(-c2ccc(Cl)cn2)ccc1=O` (stereo not shown) [drawing 79], for which, in assay [3], half-maximal inhibition (IC50) was put at 422 nM.
The compound `CCCCCCCOCC#CCn1nc(-c2ccc(Cl)cn2)ccc1=O` [drawing 76] gave a concentration for half-maximal inhibition (IC50) in assay [3] of 45.5 nM.
Consider `CCC#CCn1nc(-c2ccc(Cl)cn2)ccc1=O` [drawing 96], for which the figures for the half-maximal effective concentration (EC50) in assay [1] and in assay [2] (setting [4]) were 0.0474 µg/mL (≈ 0.173 µM) and 0.113 µg/mL (≈ 0.413 µM), respectively.
Take `CCC#CCN1N=C(c2cccc(Cl)n2)CCC1=O` [drawing 103]: the concentration for a half-maximal effect (EC50) in assay [1] was determined as 1.01 µg/mL (≈ 3.66 µM); in assay [2] (setting [4]), 3.4 µg/mL (≈ 12.3 µM).
In assay [3], `CCC#CCn1nc(-c2ncc(Br)cn2)ccc1=O` gave an IC50 of 3790 nM.
Same read-out and setting: with `CCCCCCOCC#CCn1nc(-c2ncc(Br)cn2)ccc1=O` the figure was 39.5 nM.
As for `CCC#CCn1nc(-c2ccc(F)c(F)n2)ccc1=O`, the concentration giving a half-maximal response (EC50) in assay [1] was found to be 0.163 µg/mL (≈ 0.592 µM); in assay [2] (setting [4]) it was 0.181 µg/mL (≈ 0.658 µM).
`CCCOCCOCC#CCn1nc(-c2ccc(Cl)cn2)ccc1=O` had an IC50 in assay [3] of 108 nM.
As to `CCCCCOCC#CCn1nc(-c2ccc(Cl)cn2)ccc1=O` [drawing 98], the 50% effective concentration (EC50) was 0.192 µg/mL (≈ 0.555 µM) in assay [1] and 0.007 µg/mL (≈ 0.0202 µM) in assay [2] (setting [4]).
Regarding `CCC#CCn1nc(-c2ccc(Cl)cn2)ccc1=O` [drawing 116], the EC50 in the assay with Candida albicans came to 0.091 µg/mL (≈ 0.332 µM).
`C=CC#CCn1nc(-c2ccc(Cl)cn2)ccc1=O`: in assay [3], the IC50 is 58.9 nM.
On the same count and under the same terms, the same measure for `CCC#CCn1nc(-c2ccc(Cl)cn2)ccc1=O` [drawing 70]: 121 nM.
Regarding `CCC#CCN1N=C(c2ccc(Cl)c(Cl)n2)CCC1=O`, the figures for the concentration giving a half-maximal response (EC50) in assay [1] and in assay [2] (setting [4]) were 0.031 µg/mL (≈ 0.0999 µM) and 0.036 µg/mL (≈ 0.116 µM), respectively.
In assay [3], `CCC#CCN1N=C(c2ncccc2Cl)CCC1=O` [drawing 86] yielded a concentration for half-maximal inhibition (IC50) greater than 145000 nM.
Turning to `CCC#CCN1N=C(c2ncc(Cl)cc2Cl)CCC1=O` [drawing 110], the figures for the EC50 in assay [1] and in assay [2] (setting [4]) were 3.47 µg/mL (≈ 11.2 µM) and 8 µg/mL (≈ 25.8 µM), respectively.
In assay [3], `CCCCCCCOCC#CCn1nc(-c2ccc(Cl)cn2)ccc1=O` [drawing 80] had an IC50 of 72.2 nM.
The compound `CC(C)(C)C#C/C=C/Cn1nc(-c2ccc(Cl)cn2)ccc1=O` [drawing 90] yielded a half-maximal inhibitory concentration (IC50) in assay [3] greater than 122000 nM.
On the same count and under the same terms, with `CCC#CCn1nc(-c2ccc(Cl)c(Cl)n2)ccc1=O` [drawing 85] the figure was 263 nM.
`CCCCCOCC#CCn1nc(-c2ccc(Cl)cn2)ccc1=O` [drawing 117]: the EC50 in the assay with Candida albicans (Candida albicans, 48 h) amounted to 0.176 µg/mL (≈ 0.509 µM).
In assay [3], `CCCCCCCC#CCn1nc(-c2ccc(Cl)cn2)ccc1=O` had an IC50 of 78.5 nM.
On to `CCCCCOCC#CCn1nc(-c2ccc(Cl)cn2)ccc1=O` [drawing 72], for which, in assay [3], the midpoint of inhibition, the IC50, lay at 23.1 nM.
The same measure, in the same setting: with `CCC#CCN1N=C(c2ncc(Cl)cc2Cl)CCC1=O` [drawing 88] the figure was greater than 129000 nM.
Turning to `CCC#CCn1nc(-c2ccc(Cl)c(Cl)n2)ccc1=O` [drawing 106], the concentration giving a half-maximal response (EC50) in assay [1] turned out to be 0.0371 µg/mL (≈ 0.12 µM); in assay [2] (setting [4]) it was 0.0537 µg/mL (≈ 0.174 µM).
As for `CCC#CCn1nc(-c2ccc(Br)cn2)ccc1=O`, the IC50 in assay [3] is less than 123 nM.
In the case of `CCC#CCn1nc(-c2cccc(Cl)n2)ccc1=O` [drawing 105], the half-maximal effective concentration (EC50) was 1.4 µg/mL (≈ 5.11 µM) in assay [1] and 1 µg/mL (≈ 3.65 µM) in assay [2] (setting [4]).
As to `CCC#CCn1nc(-c2ccc(Cl)c(F)n2)ccc1=O` [drawing 92], in assay [3], the IC50 was 99.4 nM.
On to `CCC#CCN1N=C(c2nc(Cl)c(Cl)cc2Cl)CCC1=O` [drawing 91], for which the 50% inhibitory concentration (IC50) in assay [3] was greater than 116000 nM.
As for `CCC#CCn1nc(-c2ccc(Cl)cn2)ccc1=O` [drawing 118], in the assay with Candida albicans, the half-maximal effective concentration (EC50) was 0.210 µg/mL (≈ 0.767 µM).
Regarding `CCC#CCn1nc(-c2ncccc2Cl)ccc1=O` [drawing 87], in assay [3], the half-maximal inhibitory concentration (IC50) was greater than 146000 nM.
The same measure, in the same setting: the same measure for `CCC#CCn1nc(-c2ncc(Cl)cc2Cl)ccc1=O` [drawing 89]: greater than 130000 nM.
For the compound `CCC#CCN1N=C(c2nc(Cl)c(Cl)cc2Cl)CCC1=O` [drawing 113], the values for the EC50 in assay [1] and in assay [2] were 5.75 µg/mL (≈ 16.7 µM) and 8.71 µg/mL (≈ 25.3 µM), respectively.
Compound `CCC#CCN1N=C(c2cccc(Cl)n2)CCC1=O` [drawing 83] yielded a concentration for half-maximal inhibition (IC50) in assay [3] greater than 145000 nM.
On the same count and under the same terms, with `CCCCCCCC#CCn1nc(-c2ncc(Br)cn2)ccc1=O` the figure was 87.3 nM.
Take `CCC(C)CCOCC#CCn1nc(-c2ccc(Cl)cn2)ccc1=O` (stereo not shown) [drawing 100]: the concentration for a half-maximal effect (EC50) came to 0.284 µg/mL (≈ 0.789 µM) in assay [1] and 1.16 µg/mL (≈ 3.22 µM) in assay [2] (setting [4]).
In assay [3], `CCC#CCn1nc(-c2cccc(Cl)n2)ccc1=O` [drawing 84] had an IC50 of 61400 nM.
Turning to `CCC#CCn1nc(-c2ccc(C(F)(F)F)cn2)ccc1=O`, the EC50 in assay [1] was 0.674 µg/mL (≈ 2.19 µM); in assay [2] (setting [4]) it was 0.758 µg/mL (≈ 2.47 µM).
For `CCC#CCN1N=C(c2ncccc2Cl)CCC1=O` [drawing 108] the same measures were 33 µg/mL (≈ 120 µM) and greater than 40 µg/mL.
For the compound `CCCCOCC#CCn1nc(-c2ccc(Cl)cn2)ccc1=O`, the half-maximal inhibitory concentration (IC50) in assay [3] was 27.1 nM.
